Test results reported in US6551774B1, “Diagnostic methods for conditions associated with elevated cellular levels of telomerase activity” (Board of Regents, The University of Texas System, priority 1992, dated 2003).

Tests used:
Assay type in all cases: cell-based, Tetrahymena thermophila
[1] = tested on: Tetrahymena cells; experiment: Growth, morphology and senescence of Tetrahymena mass-transfer cultures with nucleoside analogs
Protocol: For analysis of macronuclear DNA from cultures containing the nucleoside analog AZT (Sigma), or controls lacking analog, at various timepoints during vegetative divisions, cells from stationary stock cultures were inoculated into 25 ml thymine-deficient Iso-sensitest broth (‘Isobroth’, Oxoid USA) in 250 ml flasks. Cultures were incubated at 30° C. with shaking (100 rpm) for 48 hours. Cells were counted and plated at 1000 cells/1.5 ml in 24-well plates (Falcon) and grown at 30° C., without shaking, for 48 hours. 5 μl of these log phase cells were used to inoculate 1 ml cultures (Isobroth) containing varied concentrations of nucleoside analog. Thereafter, every 2-4 days cells were transferred, either 5 μl per well, or 1-3 μl using a multi-pronged replicator into fresh 1 ml broth containing AZT. Remaining cells were pelleted and stored at −80° C. until processed for DNA analysis.
For analysis of macronuclear DNA from vegetative cultures containing the nucleoside analogs Ara-G (Calbiochem), ddG (Calbiochem), or ddI (Calbiochem), or controls lacking analog, stock cultures were grown overnight in 2% PPYS as described. Cells were counted and plated at 100 cells/2 ml in 2% PPYS containing varied amounts of analog, 1% DMSO (Fisher) (as a control for ddG and Ara-G), or 2% PPYS alone. Cells were replica plated into fresh medium every 2-6 days, and remaining cells were pelleted and stored at −80° C. until processed for DNA analysis.
To test whether such a phenotype could be produced by inhibitors of telomerase in Tetrahymena, duplicate log-phase cultures were grown for prolonged periods in the presence of varying concentrations of analogs. The growth and cell morphology of these cultures were monitored, and DNA was isolated at different times for telomere length analysis. […] From growth rate measurements it was calculated that the cells went through 150 to 250 cell generations in the course of this 50 day period.

[2] = tested on: Tetrahymena cells; experiment: Single-cell transfer cultures of Tetrahymena with AZT or Ara-G
Protocol: For analysis of vegetative growth and macronuclear DNA from single-cell cultures containing the nucleoside analogs AZT or Ara-G, SB210 (VI) cells were grown from stationary stock cultures overnight at 30° C. with shaking (100 rpm) in 50 ml 2% PPYS or Isobroth. Cells were counted and added to the appropriate medium plus analog (Ara-G to 1 mM or DMSO to 1% as control in 2% PPYS; AZT to 10 μm or 1 mM, or no addition as control in Isobroth) and plated in 96-well plates (Falcon), 100 μl per well at a density of 1 cell per well. 5 plates were prepared for each analog or control. Wells were scored for cell growth and plates were replica plated every 1-2 days (Ara-G and DMSO plates) or every 2-4 days (AZT and Isobroth control plates) to maintain approximate inoculation densities of 1-10 cells per well for each passage. Occasionally individual wells were passaged by hand (1 μl inoculated per well using a pipettor) into several blank wells, to expand the number of live wells per plate as single-cell cultures were lost over time due to low probability of being transferred at each passage. After passaging, cells were pooled, pelleted and stored at −80° C. until processed for DNA analysis.
To test whether we had missed such a subpopulation of cells, we carried out the same experiments on vegetatively dividing Tetrahymena cells in the presence and absence of drug, but in these experiments the subculturing was carried out by plating cells at an average of 1 to 10 cells per well in microtiter plate wells in the presence of 10 μM and 1 mM AZT, and 10 μM and 1 mM Ara-G. For each drug, cells were plated out in this manner for 30 consecutive days (90 to 150 cell generations) and 16 consecutive days (50 to 80 cell generations) respectively for the 10 μM and 1 mM drug concentrations. DNA was isolated at intervals from combined samplings of the wells for analysis of telomere length.

[3] = tested on: Tetrahymena cells; experiment: Progeny formation (cycloheximide resistance) of Tetrahymena conjugated in the presence of analog; details: for # CHX-R: number of cycloheximide-resistant wells
Protocol: For analysis of cycloheximide (CHX) sensitivity of cells conjugated in the presence of analog, 50 ml cultures of each cell type were grown overnight in 2% PPYS, starved in Dryl's for 18 hours, mated (5×10^5 cells/ml) for 6 hours, then analog was added. Cells were allowed to complete mating in the presence of the analog. Twenty-four hours after mixing, cells were diluted in Dryl's solution, counted and plated at 1 cell per well of 96-well plates in 1% PPYS without analog. Cells were grown for 4 days in a humid chamber at 30° C., without shaking. Cells were then replica plated into 1% PPYS plus 15 μg/ml cycloheximide, allowed to grow for four days before scoring, and percent of CHX-resistant wells was calculated. Because generation of progeny expressing the cycloheximide marker requires successful production of a new macronucleus, cells whose macronuclear development was disrupted by the analog are killed in CHX.
This process involves de novo formation of new macronuclear telomeres in the progeny cells. Macronuclear development in ciliated protozoans such as Tetrahymena involves developmentally programmed, site-specific fragmentation of germline chromosomes into linear subchromosomes, whose ends are healed by de novo addition of telomeres. […] Because of the immediate requirement for telomere addition to fragmented DNA, it is possible that the latter process might be more sensitive to telomerase inhibition than telomere maintenance during vegetative growth. To test whether nucleoside analogs cause inhibition of macronuclear development due to a disruption of telomere formation, we mated two strains of Tetrahymena which are sensitive to cycloheximide, but whose progeny after mating are resistant to cycloheximide. Synchronized mated cells were treated with AZT at concentrations ranging from 10 μM to 5 mM for a period beginning just prior to when macronuclear development begins and continuing during macronuclear development (the period 6-24 hours after mating was initiated). […] In attempts to maximize the effect of AZT, cells were either refed at 6 hrs with 2% PPYS or Isobroth, or starved until 24 hrs (the duration of the AZT treatment). Such starvation arrests macronuclear development at an intermediate stage. When refed, macronuclear development would then be forced to proceed in the presence of the AZT. Control, unmated parental cells were also plated and exposed to drug.

[4] = 1 mM in Isobroth, single cell transfers

Cc1cn([C@H]2C[C@H](N=[N+]=[N-])[C@@H](CO)O2)c(=O)[nH]c1=O [AZT]
effect on cell growth and survival ([1]; 5 or 10 mM in Isobroth medium): strongly inhibited cell growth and killed cells within a day | senescence of cultures ([1]; up to 1 mM in Isobroth, 50-day continuous growth, ˜10^3 cells per transfer): did not result in senescence | plating efficiency compared with control medium ([2]; 10 μM AZT, 10 μM or 1 mM Ara-G, 1 to 10 cells per well): no changes in the plating efficiency | mean length and size distribution of telomeric DNA of pooled fast cells ([2]; 1 mM in Isobroth): indistinguishable from those of control cells grown without AZT | telomeric DNA of pooled slow cells ([2]; 1 mM in Isobroth): slight decrease in mean telomere length and heterogeneity | growth rate of the fast growth class [2, 4]: 2 to 4 cell doubling per day | growth rate of the slow growth class [2, 4]: 0 to 1 cell doubling per day | % CHX-R ([3]; 0.01 mM analog (head prints MM), first block for the analog): 72% | % CHX-R ([3]; 0.01 mM analog (head prints MM), second block for the analog): 73% | # CHX-R ([3]; 0.01 mM analog, first block for the analog): 121 | # CHX-R ([3]; 0.01 mM analog, second block for the analog): 67 | % CHX-R ([3]; 0.1 mM analog (head prints MM), first block for the analog): 68% | % CHX-R ([3]; 0.1 mM analog (head prints MM), second block for the analog): 67% | # CHX-R ([3]; 0.1 mM analog, first block for the analog): 100 | # CHX-R ([3]; 0.1 mM analog, second block for the analog): 128 | % CHX-R ([3]; 1.0 mM analog (head prints MM), first block for the analog): 55% | % CHX-R ([3]; 1.0 mM analog (head prints MM), second block for the analog): 48% | # CHX-R ([3]; 1.0 mM analog, first block for the analog): 91 | # CHX-R ([3]; 1.0 mM analog, second block for the analog): 60 | % CHX-R ([3]; 5.0 mM analog (head prints MM), first block for the analog): 63% | % CHX-R ([3]; 5.0 mM analog (head prints MM), second block for the analog): 53% | # CHX-R ([3]; 5.0 mM analog, first block for the analog): 75 | # CHX-R ([3]; 5.0 mM analog, second block for the analog): 89 | irreversible disruption of macronuclear development ([3]; analog present during conjugation): little or no irreversible disruption
